Columns and labels:
[1] = Percutaneous passage of GSK2256294 topical formulations in Franz's cells on pig ear skin (Example 5); assay type: in vitro ADME
Procedure: First GSK2256294 topical formulations used DMSO and water 50/50% as vehicle. The experiments were conducted with Franz's cell using the skin of a pig's ear. The donor compartment was filled by an 20 μL of solution with a concentration between 100 to 400 μg/g of GSK2256294. The receptor medium was constituted by 4.5 mL of PBS, was at 32° C. and under magnetic stirring. Samples from the receptor compartment were collected at different times over 24 hours to determine the passage flow of GSK2256294. Second GSK2256294 topical formulation using alcohol, isopropanol, propylene glycol and DMSO 50/50% as vehicle with a GSK2256294's concentration at 200 μg/g were tested in the same conditions. Samples were then frozen at −20° C. The […] quantification was realized by HPLC/MS/MSS.

[2] = Percutaneous absorption using Franz's cells on pigskin, influence of the solvent (Example 1)
Procedure: The skin of a pig's ears was chosen for the experiments as it is very similar to that of a human skin. […] The receptor compartment contained 4.5 mL of PBS and was under magnetic stirring. […] Samples were frozen at −20° C.

[3] = Solubility in paraffin wax vehicle; assay type: physicochemical; conditions: paraffin wax vehicle could not be used
[4] = GSK2256294 4 μg/mL, vehicle DMSO/water 50%/50%
[5] = GSK2256294 40 μg/mL, 'with DMSO'
[6] = GSK2256294 40 μg/mL, vehicle DMSO/water 50%/50%
[7] = GSK2256294, vehicle water at pH3
[8] = GSK2256294, vehicle water at pH3/alcohol 50/50%

SMILES: CNc1nc(C)nc(N[C@H]2CCC[C@@H](C(=O)NCc3ccc(C#N)cc3C(F)(F)F)C2)n1 [GSK2256294, (1R,3S)—N-[[4-cyano-2-(trifluoromethyl)phenyl]methyl]-3-[[4-methyl-6-(methylamino)-1,3,5-triazin-2-yl]amino]cyclohexane-1-carboxamide]
- flow between 4 and 12 h ([1]; DMSO/water 50/50%, GSK2256294 200 μg/g): 64.83 ng/h/cm^2
- flow between 4 and 12 h ([1]; DMSO/water 50/50%, lower end of GSK2256294 concentration range 100 to 400 μg/g): 41.92 ng/h/cm^2
- flow between 4 and 12 h ([1]; DMSO/water 50/50%, upper end of GSK2256294 concentration range 100 to 400 μg/g): 102.26 ng/h/cm^2
- flow between 4 and 12 h ([1]; alcohol/water 50/50%, GSK2256294 200 μg/g): 55.9 ng/h/cm^2
- flow between 4 and 12 h ([1]; isopropanol/water 50/50%, GSK2256294 200 μg/g): 74.38 ng/h/cm^2
- flow between 4 and 12 h ([1]; propylene glycol/water 50/50%, GSK2256294 200 μg/g): 48.49 ng/h/cm^2
- absorbed and released by the pigskin over 24 hrs [2, 4]: 10.5%
- percutaneous absorption flow [2, 4]: 21.9 ng/cm^2/h
- passage rate [2, 5]: 7.04%
- percutaneous absorption flow [2, 5]: 134.1 ng/cm^2/h
- absorbed and released by the pigskin over 24 hrs [2, 6]: 9.02%
- percutaneous absorption flow [2, 6]: 167.4 ng/cm^2/h
- percutaneous absorption flow ([2]; GSK2256294, vehicle PEG400): No flow
- passage rate [2, 7]: 8.31%
- percutaneous absorption flow [2, 7]: 167.4 ng/cm^2/h
- passage rate [2, 8]: 3.52%
- percutaneous absorption flow [2, 8]: 38.6 ng/cm^2/h
- solubility in paraffin wax [3]: lack of solubility

From US20210378995A1, “METHODS AND TOPICAL PHARMACEUTICAL COMPOSITIONS FOR THE TREATMENT OF SKIN MICROVASCULAR DYSFUNCTION” (INSERM (INSTITUT NATIONAL DE LA SANTÉ ET DE LA RECHERCHE …, priority 2018, published 2021)
